This note sets out measurements from patent publication US10280160B2, “Phthalazinone compounds and methods for the treatment of cystic fibrosis” (FLATLEY DISCOVERY LAB, LLC, priority 2013, dated 2019).

Sequence of human F508del CFTR (P13569 other isoform, or with tags, fused parts or gaps del F508-F508): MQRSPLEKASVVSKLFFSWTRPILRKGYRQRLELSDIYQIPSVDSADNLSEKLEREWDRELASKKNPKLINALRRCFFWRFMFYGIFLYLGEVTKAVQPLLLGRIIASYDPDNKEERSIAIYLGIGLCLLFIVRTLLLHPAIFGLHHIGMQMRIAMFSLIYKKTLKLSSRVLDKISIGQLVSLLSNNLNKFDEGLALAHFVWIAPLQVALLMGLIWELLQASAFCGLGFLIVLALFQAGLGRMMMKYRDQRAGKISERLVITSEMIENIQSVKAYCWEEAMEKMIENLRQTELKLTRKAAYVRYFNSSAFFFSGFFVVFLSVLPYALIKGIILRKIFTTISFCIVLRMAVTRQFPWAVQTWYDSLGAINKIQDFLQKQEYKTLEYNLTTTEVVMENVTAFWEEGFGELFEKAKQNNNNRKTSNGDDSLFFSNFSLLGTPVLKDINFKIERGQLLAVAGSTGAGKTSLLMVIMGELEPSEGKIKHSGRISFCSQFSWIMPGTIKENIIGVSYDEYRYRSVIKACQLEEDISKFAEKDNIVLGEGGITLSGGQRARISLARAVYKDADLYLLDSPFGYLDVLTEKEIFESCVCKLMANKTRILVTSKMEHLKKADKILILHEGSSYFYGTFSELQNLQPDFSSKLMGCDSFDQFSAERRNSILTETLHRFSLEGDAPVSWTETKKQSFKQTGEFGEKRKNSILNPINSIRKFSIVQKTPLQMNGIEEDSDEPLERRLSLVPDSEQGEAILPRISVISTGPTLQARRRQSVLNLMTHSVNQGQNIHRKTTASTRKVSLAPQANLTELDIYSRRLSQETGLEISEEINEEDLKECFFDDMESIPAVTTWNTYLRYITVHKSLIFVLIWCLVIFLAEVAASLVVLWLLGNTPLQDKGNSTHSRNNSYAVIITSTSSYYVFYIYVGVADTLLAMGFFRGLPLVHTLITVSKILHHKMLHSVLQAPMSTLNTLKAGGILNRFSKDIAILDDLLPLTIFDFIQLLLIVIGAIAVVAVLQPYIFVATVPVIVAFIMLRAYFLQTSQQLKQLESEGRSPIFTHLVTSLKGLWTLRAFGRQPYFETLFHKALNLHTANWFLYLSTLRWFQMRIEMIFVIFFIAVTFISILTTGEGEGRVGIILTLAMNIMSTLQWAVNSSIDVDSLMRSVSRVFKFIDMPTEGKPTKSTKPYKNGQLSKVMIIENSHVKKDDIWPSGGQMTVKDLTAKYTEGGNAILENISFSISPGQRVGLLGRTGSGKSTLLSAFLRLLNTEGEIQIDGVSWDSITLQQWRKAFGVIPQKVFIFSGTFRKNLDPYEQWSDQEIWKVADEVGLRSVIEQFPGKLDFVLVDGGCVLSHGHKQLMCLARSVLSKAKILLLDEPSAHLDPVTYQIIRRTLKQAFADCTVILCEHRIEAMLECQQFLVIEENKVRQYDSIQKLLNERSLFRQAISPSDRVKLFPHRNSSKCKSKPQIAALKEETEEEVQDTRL

For the assay, the target named is human F508del CFTR (Homo sapiens (Human), UniProt P13569, DEL508-508). The assay can be described thus: CFTR-YFP High Throughput Assay (YFP halide flux, FRT cells). It is filed as cell-based. As to conditions: EMax normalized to the positive control; FRT cells expressing human F508del CFTR and YFP; read-out: % Efficacy. The protocol:
Assays for Detecting and Measuring the Effect of Compounds on F508del-CFTR Channels CFTR-YFP Assay-CFTR Corrector Protocol:
This protocol is designed to selectively screen small molecule compounds for F508del CFTR corrector activities in the YFP (yellow fluorescent protein) flux assay. In this protocol, the cells are incubated with testing compounds for 24 hours, washed with PBS, stimulated with forskolin and a standard potentiator, and fluorescence in each plate well is measured kinetically read on a 384-well plate reader, such as the Hamamatsu FDSS-6000.
YFP fluorescence intensity values are acquired at high speed before and after iodide buffer is injected to the assay cells. Iodide enters the cells via active CFTR channels in the plasma membrane, and quenches the YFP fluorescence. The rate of fluorescence quenching is proportionate to the total CFTR activity in the cell membrane. F508del CFTR correctors increase the number of CFTR molecules in the testing cell plasma membrane, and thereby accelerate YFP quenching.
This method was initially developed for bench top plate readers (Galietta, J, Jayaraman, S and Verkman, A S. Cell-based assay for high-throughput quantitative screening of CFTR chloride transport agonists. Am. J. Physiol. Cell Physiol. (2001), 281: C173), and was adapted to the HTS format (Sui J, Cotard S, Andersen J, Zhu P, Staunton J, Lee M, Lin S. Optimization of a Yellow fluorescent protein-based iodide influx high-throughput screening assay for cystic fibrosis transmembrane conductance regulator (CFTR) modulators. Assay Drug Dev Technol. (2010), 8: 656-668).
Fisher Rat Thyroid (FRT) cells stably expressing both human F508del CFTR and a halide-sensitive yellow fluorescent protein (YFP-H148Q/I152L 25,22) (Galietta et al. Am. J. Physiol Cell Physiol 281(5), C1734, 2001) were cultured on plastic surface in Coon's modified Ham's F12 medium supplemented with FBS 10%, L-glutamine 2 mM, penicillin 100 U/ml, and streptomycin 100 μg/ml. G418 (0.75-1.0 mg/ml) and zeocin (3.2 ug/ml) were used for selection of FRT cells expressing F508del CFTR and YFP. For primary screening, FRT cells were plated into 384-well black wall, transparent bottom microtiter plates (Costar; Corning Inc.) at a cell density of 20,000-40,000 per well. Test compound was applied to the cells at varying concentrations ranging from 2 nM-40 μM in either a 2-fold or 3-fold dilution series. Cells were incubated in a cell culture incubator at 37° C. with 5% CO2 for 24-26 h. Assay plates were washed with DPBS media (Thermo, cat # SH30028.02) to remove unbound cells and compound. Stimulation media (25 μL) containing 20 μM Forskolin & 30 μM P3 [6-(Ethyl-phenyl-sulfonyl)-4-oxo-1,4-dihydro-quinoline-3-carboxylic acid 2-methoxy-benzylamide] in Hams F-12 coon's modified media was added to the plate wells and incubated at room temperature for 60-120 min. 25 μL of HEPES-PBS-I buffer (10 mM HEPES, 1 mM MgCl2, 3 mM KCl, 1 mM CaCl2, 150 mM NaI) was then added and fluorescence quench curves (Excitation 500 nm/Emission 540 nm; exposure 136 ms) were immediately recorded on an FDSS-6000 plate reader (Hamamatsu). Quench rates were derived from least squares fitting of the data as described by Sui et al (2010).
CFTR-YFP Assay-CFTR Potentiator Protocol:
This protocol is designed to selectively screen small molecule compounds for F508del CFTR potentiator activities in the YFP (yellow fluorescent protein) flux assay. Such compounds act acutely to stimulate CFTR already expressed on the membrane surface. In this protocol, the cells are incubated at 27° C. for 24 hours to homogeneously boost F508del CFTR expression in the cell membrane (low temperature correction), washed with PBS, treated with test compound, and CFTR activity is stimulated with forskolin for 1-2 hr. Measurement of ion flux is initiated by addition of iodide-containing buffer, and YFP quenching is kinetically recorded using a 384-well plate reader, such as the Hamamatsu FDSS-6000. […]
Turning to `Cc1nc2ccc(N(C)C(=O)Cn3nc(-c4cccc(Cl)c4)c4ccc(OC(C)C)cc4c3=O)cc2o1` [Example 25, 2-(4-(3-chlorophenyl)-7-isopropoxy-1-oxophthalazin-2(1H)-yl)-N-methyl-N-(2-methylbenzo[d]oxazol-6-yl)acetamide], the Emax is > 80%.
As to `Cc1nc2ccc(N(C)C(=O)Cn3nc(-c4cccc(Cl)c4)c4ccc(OC5CCOCC5)cc4c3=O)cc2o1` [Example 29, 2-(4-(3-chlorophenyl)-1-oxo-7-((tetrahydro-2H-pyran-4-yl)oxy)phthalazin-2(1H)-yl)-N-methyl-N-(2-methylbenzo[d]oxazol-6-yl)acetamide], the Emax was > 80%.
The figure for `Cc1nc2ccc(N(C)C(=O)Cn3nc(-c4cccc(F)c4)c4ccc(OC5CCOCC5)cc4c3=O)cc2o1` [Example 27, 2-(4-(3-fluorophenyl)-1-oxo-7-((tetrahydro-2H-pyran-4-yl)oxy)phthalazin-2(1H)-yl)-N-methyl-N-(2-methylbenzo[d]oxazol-6-yl)acetamide] is > 80%; for `CCOc1ccc2c(-c3cccc(F)c3)nn(CC(=O)N(C)c3ccc4nc(C)oc4c3)c(=O)c2c1` [Example 17, 2-(7-ethoxy-4-(3-fluorophenyl)-1-oxophthalazin-2(1H)-yl)-N-methyl-N-(2-methylbenzo[d]oxazol-6-yl)acetamide] it is > 80%; for `Cc1nc2ccc(N(C(=O)Cn3nc(-c4cccc(F)c4)c4ccc(O)cc4c3=O)C3CC3)cc2o1` [Example 14, N-cyclopropyl-2-(4-(3-fluorophenyl)-7-hydroxy-1-oxophthalazin-2(1H)-yl)-N-(2-methylbenzo[d]oxazol-6-yl)acetamide] it is 30 to 80%.
Turning to `CCOc1ccc2c(-c3cccc(F)c3)nn(CC(=O)N(c3ccc4nc(C)oc4c3)C3CC3)c(=O)c2c1` [Example 21, N-cyclopropyl-2-(7-ethoxy-4-(3-fluorophenyl)-1-oxophthalazin-2(1H)-yl)-N-(2-methylbenzo[d]oxazol-6-yl)acetamide], the Emax was > 80%.
Consider `Cc1nc2ccc(N(C(=O)Cn3nc(-c4cccc(Cl)c4)c4ccc(O)cc4c3=O)C3CC3)cc2o1` [Example 15, 2-(4-(3-chlorophenyl)-7-hydroxy-1-oxophthalazin-2(1H)-yl)-N-cyclopropyl-N-(2-methylbenzo[d]oxazol-6-yl)acetamide], for which the Emax is > 80%.
Regarding `COc1ccc2c(-c3cccc(Cl)c3)nn(CC(=O)N(c3ccc4nc(C)oc4c3)C3CC3)c(=O)c2c1` [Example 5, 2-(4-(3-chlorophenyl)-7-methoxy-1-oxophthalazin-2(1H)-yl)-N-cyclopropyl-N-(2-methylbenzo[d]oxazol-6-yl)acetamide], the Emax was > 80%.
As to `Cc1nc2ccc(N(C)C(=O)Cn3nc(-c4cccc(F)c4)c4ccc(OC5CCCCC5)cc4c3=O)cc2o1` [Example 28, 2-(7-(cyclohexyloxy)-4-(3-fluorophenyl)-1-oxophthalazin-2(1H)-yl)-N-methyl-N-(2-methylbenzo[d]oxazol-6-yl)acetamide], the Emax is > 80%.
For `CCOc1ccc2c(-c3cccc(Cl)c3)nn(CC(=O)N(c3ccc4nc(C)oc4c3)C3CC3)c(=O)c2c1` [Example 18, 2-(4-(3-chlorophenyl)-7-ethoxy-1-oxophthalazin-2(1H)-yl)-N-cyclopropyl-N-(2-methylbenzo[d]oxazol-6-yl)acetamide], the Emax is > 80%.
To `COc1cc2c(=O)n(CC(=O)N(C)c3ccc4nc(C)oc4c3)nc(-c3cccc(F)c3)c2cc1Cl` [Example 10, 2-(6-chloro-4-(3-fluorophenyl)-7-methoxy-1-oxophthalazin-2(1H)-yl)-N-methyl-N-(2-methylbenzo[d]oxazol-6-yl)acetamide] belongs 30 to 80%; to `Cc1nc2ccc(N(C)C(=O)Cn3nc(-c4cccc(Cl)c4)c4ccccc4c3=O)cc2o1` [Example 1, 2-(4-(3-chlorophenyl)-1-oxophthalazin-2(1H)-yl)-N-methyl-N-(2-methylbenzo[d]oxazol-6-yl)acetamide], > 80%.
To `COc1ccc2c(-c3cccc(F)c3)nn(CC(=O)N(c3ccc4nc(C)oc4c3)C3CC3)c(=O)c2c1` [Example 12, N-cyclopropyl-2-(4-(3-fluorophenyl)-7-methoxy-1-oxophthalazin-2(1H)-yl)-N-(2-methylbenzo[d]oxazol-6-yl)acetamide] belongs > 80%; to `Cc1nc2ccc(N(C)C(=O)Cn3nc(-c4cccc(Cl)c4)c4ccc(OC5CCCCC5)cc4c3=O)cc2o1` [Example 26, 2-(4-(3-chlorophenyl)-7-(cyclohexyloxy)-1-oxophthalazin-2(1H)-yl)-N-methyl-N-(2-methylbenzo[d]oxazol-6-yl)acetamide], > 80%; to `[2H]C([2H])(C)N(C(=O)Cn1nc(-c2cccc(Cl)c2)c2ccc(OC)cc2c1=O)c1ccc2nc(C)oc2c1` [Example 7, 2-(4-(3-chlorophenyl)-7-methoxy-1-oxophthalazin-2(1H)-yl)-N-(ethyl-1,1-d2)-N-(2-methylbenzo[d]oxazol-6-yl)acetamide], > 80%.
To `[2H]C([2H])([2H])N(C(=O)Cn1nc(-c2cccc(F)c2)c2ccc(OCC)cc2c1=O)c1ccc2nc(C)oc2c1` [Example 22, 2-(7-ethoxy-4-(3-fluorophenyl)-1-oxophthalazin-2(1H)-yl)-N-(methyl-d3)-N-(2-methylbenzo[d]oxazol-6-yl)acetamide] belongs > 80%.
As for `COc1cc2c(=O)n(CC(=O)N(C)c3ccc4nc(C)oc4c3)nc(-c3cccc(Cl)c3)c2cc1Cl` [Example 11, 2-(6-chloro-4-(3-chlorophenyl)-7-methoxy-1-oxophthalazin-2(1H)-yl)-N-methyl-(2-methylbenzo[d]oxazol-6-yl)acetamide], the Emax is > 80%.
The figure for `Cc1nc2ccc(N(C)C(=O)Cn3nc(-c4cccc(F)c4)c4ccccc4c3=O)cc2o1` [Example 2, 2-(4-(3-fluorophenyl)-1-oxophthalazin-2(1H)-yl)-N-methyl-N-(2-methylbenzo[d]oxazol-6-yl)acetamide] is 30 to 80%; for `CCOc1cc2c(=O)n(CC(=O)N(C)c3ccc4nc(C)oc4c3)nc(-c3cccc(Cl)c3)c2cc1Cl` [Example 31, 2-(6-chloro-4-(3-chlorophenyl)-7-ethoxy-1-oxophthalazin-2(1H)-yl)-N-methyl-N-(2-methylbenzo[d]oxazol-6-yl)acetamide] it is > 80%.
In the case of `[2H]C([2H])([2H])N(C(=O)Cn1nc(-c2cccc(Cl)c2)c2ccc(OC)cc2c1=O)c1ccc2nc(C)oc2c1` [Example 6, 2-(4-(3-chlorophenyl)-7-methoxy-1-oxophthalazin-2(1H)-yl)-N-(methyl-d3)-N-(2-methylbenzo[d]oxazol-6-yl)acetamide], the Emax was > 80%.
The figure for `CCN(C(=O)Cn1nc(-c2cccc(Cl)c2)c2ccc(OC)cc2c1=O)c1ccc2nc(C)oc2c1` [Example 9, 2-(4-(3-chlorophenyl)-7-methoxy-1-oxophthalazin-2(1H)-yl)-N-ethyl-N-(2-methylbenzoyl[d]oxazol-6-yl)acetamide] is > 80%.
The figure for `CCOc1ccc2c(-c3cccc(Cl)c3)nn(CC(=O)N(C)c3ccc4nc(C)oc4c3)c(=O)c2c1` [Example 19, 2-(4-(3-chlorophenyl)-7-ethoxy-1-oxophthalazin-2(1H)-yl)-N-methyl-N-(2-methylbenzo[d]oxazol-6-yl)acetamide] is > 80%.
